Test results published in ChEMBL document CHEMBL5352382, “Synthesis and evaluation of imidazo[1,2-a]pyrazine derivatives as small molecule Gαq/11 inhibitors against uveal melanoma” (Eur J Med Chem, 2022).
pIC50: −log10 of the molar value. Activity calls are given as the source filed them. The rule behind the calls is not given here.

Legend:
[1] = Aqueous solubility of the compound in deionized water at 25 degreeC by HPLC analysis; assay type: physicochemical
[2] = Chemical stability of the compound assessed as compound remaining measured after 7 days by LC-MS analysis; assay type: physicochemical; conditions: time 7 day; read-out: Stability
[3] = Metabolic stability in human liver microsomes assessed as intrinsic clearance preincubated for 15 mins followed by NADPH addition and measured upto 45 mins by LC-MS/MS analysis; assay type: ADME, Microsome; conditions: time < 60 min, read-out: CLH
[4] = Metabolic stability in human liver microsomes assessed as half life preincubated for 15 mins followed by NADPH addition and measured upto 45 mins by LC-MS/MS analysis; assay type: ADME, Microsome; conditions: time < 60 min
[5] = target: T1, GNAQ/GNA11 (Homo sapiens) (UniProt P50148+P29992); experiment: Inhibition of Galphaq/11 (unknown origin) expressed in CHO-M1 cells at 10 uM preincubated for 1 hr followed by carbachol stimulation for 30 mins and measured after 1 hr by IP1 accumulation based HTRF assay relative to control; assay type: cell-based; conditions: time 150.0 min
A-375 = experiment: Antiproliferative activity against human A-375 cells assessed as reduction in cell viability at 10 uM measured after 72 hrs by CCK-8 method; assay type: functional, cell-based
SK-MEL-2 = experiment: Antiproliferative activity against human SK-MEL-2 cells assessed as reduction in cell viability at 10 uM measured after 72 hrs by CCK-8 method; assay type: functional, cell-based
MP41 [6] = experiment: Antiproliferative activity against human MP41 cells assessed as reduction in cell viability at 1.25 uM measured after 72 hrs by CCK-8 method; assay type: functional, cell-based
921 [7] = experiment: Antiproliferative activity against human 921 cells assessed as reduction in cell viability at 1.25 uM measured after 72 hrs by CCK-8 method; assay type: functional, cell-based
MP41 [8] = experiment: Inhibition of colony formation in human MP41 cells assessed as inhibition of cell proliferation incubated for 14 days with replacement with fresh medium for every 3 days by crystal violet staining based analysis; assay type: functional; conditions: dose 1-5 µM, time 14.0 day
MP41 [9] = experiment: Inhibition of cell invasion in human MP41 cells measured after 48 hrs by crystal violet staining based Boyden chamber invasion assay; assay type: functional; conditions: dose 3-10 µM
MP41 [10] = experiment: Inhibition of cell migration in human MP41 cells incubated for 24 hrs by wound healing assay; assay type: functional, cell-based; conditions: dose 3-10 µM
[11] = target: T2, Mitogen-activated protein kinase; ERK1/ERK2 (Homo sapiens) (UniProt P27361+P28482); experiment: Inhibition of ERK1/2 phosphorylation in human MP41 cells at 20 uM by Western blot analysis; assay type: cell-based; conditions: time <= 24.0 hrs, TDE = time-dependent effect
[12] = target: Transcriptional coactivator YAP1 (Homo sapiens) (UniProt P46937); experiment: Activation of YAP phosphorylation in human MP41 cells at 20 uM by Western blot analysis; assay type: cell-based; conditions: filed as activator, time <= 24.0 hrs, TDE = time-dependent effect
[13] = target: T2, Mitogen-activated protein kinase; ERK1/ERK2 (Homo sapiens); experiment: Inhibition of ERK1/2 phosphorylation in human MP41 cells incubated for 4 hrs by Western blot analysis; assay type: cell-based; conditions: dose 3-20 µM
[14] = target: T2, Mitogen-activated protein kinase; ERK1/ERK2 (Homo sapiens); experiment: Inhibition of ERK1/2 phosphorylation in human MP41 cells incubated for 24 hrs by Western blot analysis; assay type: cell-based; conditions: dose 3-20 µM
[15] = target: Transcriptional coactivator YAP1 (Homo sapiens) (UniProt P46937); experiment: Activation of YAP phosphorylation in human MP41 cells incubated for 4 hrs by Western blot analysis; assay type: cell-based; conditions: filed as activator, dose 3-20 µM
[16] = target: Transcriptional coactivator YAP1 (Homo sapiens) (UniProt P46937); experiment: Activation of YAP phosphorylation in human MP41 cells incubated for 24 hrs by Western blot analysis; assay type: cell-based; conditions: filed as activator, dose 3-20 µM
[17] = target: T1, GNAQ/GNA11 (Homo sapiens); experiment: Binding affinity to Galphaq/11 (unknown origin) assessed as increase in thermal stability at 10 uM incubated for 1 hr by CETSA; assay type: protein assay
[18] = target: T3, Type-1 angiotensin II receptor (Homo sapiens) (UniProt P30556); experiment: (§1) Inhibition of human AT1R expressed in HEK293 cells using […] incubated for 1 hr followed by addition of angiotensinII and substrate by BRET assay; assay type: cell-based; conditions: dose 0.3-100 µM
T3 sequence (whole entry): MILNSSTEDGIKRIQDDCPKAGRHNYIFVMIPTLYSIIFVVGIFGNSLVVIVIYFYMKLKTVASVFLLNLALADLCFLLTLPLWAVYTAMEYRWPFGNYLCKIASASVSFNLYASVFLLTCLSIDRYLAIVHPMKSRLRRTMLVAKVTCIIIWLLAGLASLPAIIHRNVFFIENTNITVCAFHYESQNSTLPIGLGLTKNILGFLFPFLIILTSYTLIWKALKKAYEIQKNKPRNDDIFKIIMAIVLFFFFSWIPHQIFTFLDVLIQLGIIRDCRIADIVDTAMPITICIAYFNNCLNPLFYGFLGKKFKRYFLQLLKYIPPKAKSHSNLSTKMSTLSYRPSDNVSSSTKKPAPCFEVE

MP41 [19] = experiment: Antiproliferative activity against human MP41 cells transfected with SiGNA11 assessed as reduction in cell viability measured after 72 hrs by CCK-8 method; assay type: functional, cell-based; conditions: dose <= 10.0 µM
[20] = Antiproliferative activity against human MP41 cells assessed as reduction in cell viability measured after 72 hrs by CCK-8 method; assay type: functional, cell-based; conditions: MP41, 72 h
[21] = Antiproliferative activity against human 921 cells assessed as reduction in cell viability measured after 72 hrs by CCK-8 method; assay type: functional, cell-based; conditions: Homo sapiens, 921, 72 h
HEK-293T [22] = experiment: Cytotoxicity against HEK293T cells assessed as reduction in cell viability at upto 10 uM measured after 72 hrs by CCK-8 method; assay type: toxicity, cell-based; conditions: human
BEAS-2B [23] = experiment: Cytotoxicity against human BEAS-2B cells assessed as reduction in cell viability at upto 10 uM measured after 72 hrs by CCK-8 method; assay type: toxicity, cell-based
MP41 [24] = experiment: Antiproliferative activity against human MP41 cells assessed as reduction in cell viability at 10 uM measured after 72 hrs by CCK-8 method; assay type: functional, cell-based
921 [25] = experiment: Antiproliferative activity against human 921 cells assessed as reduction in cell viability at 10 uM measured after 72 hrs by CCK-8 method; assay type: functional, cell-based
MP41 [26] = experiment: Inhibition of colony formation in human MP41 cells assessed as inhibition of cell proliferation at 1 uM incubated for 14 days with replacement with fresh medium for every 3 days by crystal violet staining based analysis; assay type: functional; conditions: time 14.0 day
MP41 [27] = experiment: Inhibition of cell migration in human MP41 cells at 1 uM incubated for 24 hrs by wound healing assay; assay type: functional, cell-based
HEK-293T [28] = experiment: Cytotoxicity against HEK293T cells assessed as reduction in cell viability at 10 uM measured after 72 hrs by CCK-8 method; assay type: toxicity, cell-based; conditions: human
BEAS-2B [29] = experiment: Cytotoxicity against human BEAS-2B cells assessed as reduction in cell viability at 10 uM measured after 72 hrs by CCK-8 method; assay type: toxicity, cell-based
[30] = target: T4, Type-1 angiotensin II receptor (Homo sapiens, UniProt P30556); experiment: as §1; assay type: cell-based
T4 sequence (P30556 whole entry): T3 sequence (whole entry)

[31] = Inhibition of Galphaq (unknown origin) preincubated for 1 hr followed by carbachol stimulation for 30 mins and measured after 1 hr by IP1 accumulation based HTRF assay; design: species or system Homo sapiens

Sequence of Transcriptional coactivator YAP1 (Homo sapiens) (P46937 whole entry): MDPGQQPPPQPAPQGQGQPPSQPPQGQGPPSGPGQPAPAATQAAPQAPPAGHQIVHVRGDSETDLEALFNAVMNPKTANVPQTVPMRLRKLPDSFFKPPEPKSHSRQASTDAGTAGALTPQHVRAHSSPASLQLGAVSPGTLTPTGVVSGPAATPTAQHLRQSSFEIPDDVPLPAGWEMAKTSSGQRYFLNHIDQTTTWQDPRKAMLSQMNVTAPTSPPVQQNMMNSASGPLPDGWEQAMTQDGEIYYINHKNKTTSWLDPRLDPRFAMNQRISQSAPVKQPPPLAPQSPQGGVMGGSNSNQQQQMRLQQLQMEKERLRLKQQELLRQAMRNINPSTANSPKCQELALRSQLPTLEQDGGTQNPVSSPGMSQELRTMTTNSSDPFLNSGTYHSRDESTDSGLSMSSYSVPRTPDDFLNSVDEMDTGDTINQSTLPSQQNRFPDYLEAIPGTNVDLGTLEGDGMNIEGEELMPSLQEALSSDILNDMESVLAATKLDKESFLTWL
T2 sequence (P27361 whole entry, looked up): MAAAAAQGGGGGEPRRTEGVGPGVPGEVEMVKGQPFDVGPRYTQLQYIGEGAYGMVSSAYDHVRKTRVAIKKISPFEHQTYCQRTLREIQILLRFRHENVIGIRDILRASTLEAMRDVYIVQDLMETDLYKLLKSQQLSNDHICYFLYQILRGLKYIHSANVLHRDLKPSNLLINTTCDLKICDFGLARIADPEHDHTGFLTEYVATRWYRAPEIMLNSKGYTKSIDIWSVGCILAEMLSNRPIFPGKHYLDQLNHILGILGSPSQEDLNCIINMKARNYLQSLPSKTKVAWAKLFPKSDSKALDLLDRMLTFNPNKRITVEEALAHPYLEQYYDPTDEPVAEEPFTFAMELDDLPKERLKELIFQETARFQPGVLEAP
T2 sequence (P28482 whole entry, looked up): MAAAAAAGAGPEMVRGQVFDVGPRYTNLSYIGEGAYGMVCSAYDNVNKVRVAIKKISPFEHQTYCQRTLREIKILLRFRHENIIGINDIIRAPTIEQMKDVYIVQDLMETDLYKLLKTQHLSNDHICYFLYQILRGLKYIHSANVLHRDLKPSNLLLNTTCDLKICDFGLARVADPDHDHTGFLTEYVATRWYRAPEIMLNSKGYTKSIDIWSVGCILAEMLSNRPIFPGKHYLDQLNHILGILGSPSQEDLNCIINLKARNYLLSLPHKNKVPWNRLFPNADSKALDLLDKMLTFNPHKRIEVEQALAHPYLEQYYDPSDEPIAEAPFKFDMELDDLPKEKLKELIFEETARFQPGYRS

CC[C@H](C)[C@H](N)C(=O)N1CCn2cc(-c3ccc4c(c3)CCCC4)nc2[C@@H]1CC1CCCCC1.O=C(O)C(F)(F)F
solubility [1]: 9190 µg/mL | remaining at 168 h [2]: 98.5% | CLint scaled [3]: 16.4 mL/min/kg | half-life [4]: 1.77 h

CC[C@H](C)[C@H](N)C(=O)N1CCn2cc(-c3ccc4c(c3)CCCC4)nc2[C@@H]1CC1CCCCC1 [listing 1 of 2 here]
inhibition [5]: 18.3% | Activity (A-375): inactive | Activity (SK-MEL-2): inactive | Activity (MP41 [6]): Active | Activity 921 [7]: Active | inhibition (MP41 [8]): Dose-Dependent Effect | inhibition (MP41 [9]): Dose-Dependent Effect | inhibition (MP41 [10]): Dose-Dependent Effect | inhibition [11]: Tde | Activity [12]: Tde | inhibition [13]: Dose-Dependent Effect | inhibition [14]: Dose-Dependent Effect | Activity [15]: Dose-Dependent Effect | Activity [16]: Dose-Dependent Effect | Activity [17]: Active | inhibition [18]: Dose-Dependent Effect | Activity (MP41 [19]): Dose-Dependent Effect

CC(C)C[C@H](N)CN1CCn2cc(-c3ccc4c(c3)CCCC4)nc2[C@@H]1CC1CCCCC1
inhibition [5]: 15.7% | pIC50 [20]: 5.12 | pIC50 [21]: 5.51 | Activity (HEK-293T [22]): Toxic | Activity (BEAS-2B [23]): Toxic

N[C@H](CN1CCn2cc(-c3ccc4c(c3)CCCC4)nc2[C@@H]1CC1CCCCC1)C1CCCCC1
inhibition [5]: 12.2% | pIC50 [20]: 5.23 | pIC50 [21]: 5.39 | Activity (HEK-293T [22]): Toxic | Activity (BEAS-2B [23]): Toxic

N[C@@H](CSSC[C@H](N)C(=O)N1CCn2cc(-c3ccccc3)nc2[C@@H]1CC1CCCCC1)C(=O)N1CCn2cc(-c3ccccc3)nc2[C@@H]1CC1CCCCC1
inhibition [5]: 10.9% | pIC50 [20]: 4.99 | pIC50 [21]: 4.84 | Activity (A-375): Active | Activity (SK-MEL-2): Active | Activity (MP41 [24]): Active | Activity 921 [25]: Active | inhibition (MP41 [26]): Active | inhibition (MP41 [27]): Active

CC[C@H](C)[C@H](N)C(=O)N1CCn2cc(-c3ccc4c(c3)CCCC4)nc2[C@@H]1CC1CCCCC1 [listing 2 of 2 here]
pIC50 [20]: 5.46 | pIC50 [21]: 5.17 | Activity (HEK-293T [28]): Non-Toxic | Activity (BEAS-2B [29]): Non-Toxic | pIC50 [30]: 5.05 | pIC50 [31]: 4.64

CC[C@H](C)[C@H](N)C(=O)N1CCn2cc(-c3ccccc3C)nc2[C@@H]1CC1CCCCC1
inhibition [5]: 15% | pIC50 [20]: 5.15 | pIC50 [21]: 5.06
